Data on 2 compounds can be found in patent publication US20140090094A1, “MODULATORS OF SLC22A7” (BAYER INTELLECTUAL PROPERTY GmbH, priority 2011, published 2014).

Molecules are shown by their SMILES. Values joined by “and” are separate entries in the source; they are usually repeats but may differ in a detail not shown here. Equal values may be shown once.

One test has as its target T1, OAT2h (Homo sapiens, UniProt Q9Y694).
T1 construct: expressed in transfected cells; host or cells: 293 cells (HEK-293), pEBTetD/OAT2h, doxycycline-inducible
T1 sequence (Q9Y694 1-546 isoform Q9Y694-2): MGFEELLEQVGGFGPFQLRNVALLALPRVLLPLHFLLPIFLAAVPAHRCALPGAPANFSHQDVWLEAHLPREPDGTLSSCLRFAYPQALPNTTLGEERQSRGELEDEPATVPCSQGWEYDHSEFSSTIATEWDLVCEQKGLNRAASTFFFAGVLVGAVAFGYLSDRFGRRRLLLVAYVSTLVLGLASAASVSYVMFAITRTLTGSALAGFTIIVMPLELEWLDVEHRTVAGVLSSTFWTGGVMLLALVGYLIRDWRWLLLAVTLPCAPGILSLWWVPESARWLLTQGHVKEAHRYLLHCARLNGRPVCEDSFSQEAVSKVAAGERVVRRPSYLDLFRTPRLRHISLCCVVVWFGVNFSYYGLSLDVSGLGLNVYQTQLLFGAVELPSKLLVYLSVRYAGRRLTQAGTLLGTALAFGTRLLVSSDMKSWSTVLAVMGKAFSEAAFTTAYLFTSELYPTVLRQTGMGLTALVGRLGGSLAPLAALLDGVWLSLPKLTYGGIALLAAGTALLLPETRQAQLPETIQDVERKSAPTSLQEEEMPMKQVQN
Briefly: intracellular glutamate content of 293 cells expressing OAT2h versus uninduced control cells. It counts as cell-based. The settings on record: n=2.

The target in the next test is T2, OAT2r (Rattus norvegicus, UniProt Q5RLM2).
T2 construct: expressed in transfected cells
T2 sequence (Q5RLM2 1-535): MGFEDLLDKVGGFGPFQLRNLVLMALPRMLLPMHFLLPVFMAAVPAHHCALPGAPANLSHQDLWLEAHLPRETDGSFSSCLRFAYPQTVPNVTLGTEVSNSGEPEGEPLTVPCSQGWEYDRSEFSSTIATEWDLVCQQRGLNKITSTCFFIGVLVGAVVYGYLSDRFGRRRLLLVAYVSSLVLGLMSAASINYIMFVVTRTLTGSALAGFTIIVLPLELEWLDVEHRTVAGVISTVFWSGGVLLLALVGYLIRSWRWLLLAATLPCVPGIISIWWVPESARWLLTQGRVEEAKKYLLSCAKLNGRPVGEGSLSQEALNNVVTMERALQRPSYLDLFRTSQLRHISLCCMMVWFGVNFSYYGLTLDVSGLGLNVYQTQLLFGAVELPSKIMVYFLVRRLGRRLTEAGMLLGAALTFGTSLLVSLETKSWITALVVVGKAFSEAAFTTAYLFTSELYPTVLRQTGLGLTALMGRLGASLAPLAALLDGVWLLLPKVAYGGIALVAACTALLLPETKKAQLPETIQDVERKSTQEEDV
Briefly: 24 h accumulation in lysates of OAT2r-expressing versus control cells (LC-MS/MS). The settings on record: 24 h incubation, compound at 100 μmol/l. It counts as cell-based. The protocol:
A substrate search by LC-MS difference shading was performed with 293 cells stably transfected to express OAT2 from rat. […] To verify that trigonelline is directly transported by OAT2 and not just increased indirectly, initial rates of uptake (1 min, 37° C.) of trigonelline (10 μmol/l) were determined by LC-MS/MS.
With trigonelline as substrate lead, compounds wholly or partly related in structure were analyzed for transport by OAT2 from rat.
After centrifugation (1 min, 16000×g, 20° C.) of thawed lysates, 100 μl of the supernatant was mixed with either 10 μl unlabeled MPP+ iodide (0.5 ng/μl) or biphenyl-4-carboxylic acid (Sigma-Aldrich) as internal standard. Of this mixture, […] were analyzed by LCMS/MS on a triple quadrupole mass spectrometer (4000 Q TRAP, Applied Biosystems, Darmstadt, Germany). […] Atmospheric pressure ionization with positive or negative electrospray was used. For quantification (scan time 150 ms), the optimal collision energy for argon-induced fragmentation in the second quadrupole was determined for each analyte. […] Linear calibration curves were constructed from at least six standards which were prepared using control cell lysates as solvent. Sample analyte content was calculated from the analyte response ratio and the slope of the calibration curve, obtained by linear regression. With LC-MS quantitation, solute content of cell lysates was determined for 4 conditions ([…]): a) transporter expression on, uptake buffer; b) expression off, uptake buffer; c) expression on, substrate in uptake buffer; d) expression off, substrate in uptake buffer. Acute uptake mediated by heterologously expressed carrier was then calculated as (c−a)−(d−b). This approach takes into account endogenous solute content and non-specific uptake. Protein was measured by the BCA assay (Pierce) with bovine serum albumin as standard. The protein content of MS samples was estimated from 3 matched cell dishes.

For the compound `N[C@@H](CCC(=O)O)C(=O)O` [glutamate], on OAT2h, the “intracellular glutamate content versus uninduced control cells (factor f)” value was found to be 0.60±0.09.

With `C[n+]1cccc(C(=O)[O-])c1` [trigonelline], the “increase in OAT2r cell lysates versus control cells (factor f)” value on OAT2r was 8.1 and 4.7.
